According to the CombiSolv-Exp solvation set (Vermeire and Green 2021):

Experiment: solvent given as SMILES
[1] = in CCCCCCCCC=CCCCCCCCC(=O)OCC(COC(=O)CCCCCCCC=CCCCCCCCC)OC(=O)CCCCCCCC=CCCCCCCCC

## CCCCCCCCCCCCCC(=O)OC
In O
  solvation free energy, 298 K: -1.14 kcal/mol

## CCCCCCc1ccccc1
In CO
  solvation free energy, 298 K: -7.13 kcal/mol

## OC(Cl)CCCl (stereo not drawn)
In CCCCCCCCCCO
  solvation free energy, 298 K: -7 kcal/mol

## O=C(O)Cc1ccccc1Nc1c(Cl)cccc1Cl
In C1COCCO1
  solvation free energy, 298 K: -19.7 kcal/mol
In CCCCCO
  solvation free energy, 298 K: -18.4 kcal/mol
In CCO
  solvation free energy, 298 K: -18.5 kcal/mol
In CN(C)C=O
  solvation free energy, 298 K: -20 kcal/mol
In CO
  solvation free energy, 298 K: -18.5 kcal/mol
In Clc1ccccc1
  solvation free energy, 298 K: -17.7 kcal/mol
In NC=O
  solvation free energy, 298 K: -17.8 kcal/mol

## CCCC(C)CC (stereo not drawn)
In C=CCCCCCCCCCCCCCC
  solvation free energy, 298 K: -4.01 kcal/mol

## CCOC(=O)c1ccccc1O
In O
  solvation free energy, 298 K: -3.82 kcal/mol

## O=[N+]([O-])c1cccc2ccccc12
In CC(C)(C)O
  solvation free energy, 298 K: -9.71 kcal/mol
In CC(C)CC(C)(C)C
  solvation free energy, 298 K: -9.18 kcal/mol
In CC(C)CCO
  solvation free energy, 298 K: -9.67 kcal/mol
In CC(C)CO
  solvation free energy, 298 K: -9.55 kcal/mol
In CC(C)O
  solvation free energy, 298 K: -9.78 kcal/mol
In CC(C)OC(C)C
  solvation free energy, 298 K: -10.4 kcal/mol
In CCC(C)O
  solvation free energy, 298 K: -9.94 kcal/mol
In CCCC(C)O
  solvation free energy, 298 K: -9.83 kcal/mol
In CCCCC(CC)CO
  solvation free energy, 298 K: -9.76 kcal/mol
In CCCCCC
  solvation free energy, 298 K: -9.35 kcal/mol
In CCCCCCC
  solvation free energy, 298 K: -9.37 kcal/mol
In CCCCCCCC
  solvation free energy, 298 K: -9.38 kcal/mol
In CCCCCCCCCC
  solvation free energy, 298 K: -9.39 kcal/mol
In CCCCCCCCCCO
  solvation free energy, 298 K: -9.94 kcal/mol
In CCCCCCCCO
  solvation free energy, 298 K: -9.98 kcal/mol
In CCCCCCCO
  solvation free energy, 298 K: -9.98 kcal/mol
In CCCCCCO
  solvation free energy, 298 K: -10 kcal/mol
In CCCCCO
  solvation free energy, 298 K: -9.99 kcal/mol
In CCCCO
  solvation free energy, 298 K: -9.97 kcal/mol
In CCCCOCCCC
  solvation free energy, 298 K: -10.2 kcal/mol
In CCCO
  solvation free energy, 298 K: -9.99 kcal/mol
In CCO
  solvation free energy, 298 K: -10.1 kcal/mol
In CCOCC
  solvation free energy, 298 K: -11 kcal/mol
In COC(C)(C)C
  solvation free energy, 298 K: -10.9 kcal/mol
In O
  solvation free energy, 298 K: -5.65 kcal/mol

## CCCCCN
In CCCCCCC
  solvation free energy, 298 K: -4.79 kcal/mol
In O
  solvation free energy, 298 K: -4.13 kcal/mol

## CC(=O)CC(C)=O
In C1CCCCC1
  solvation free energy, 298 K: -4.89 kcal/mol
In CC(C)O
  solvation free energy, 298 K: -5.03 kcal/mol
In CCC(C)O
  solvation free energy, 298 K: -5.05 kcal/mol
In CCCO
  solvation free energy, 298 K: -5.03 kcal/mol
In CCO
  solvation free energy, 298 K: -5.43 kcal/mol
In O
  solvation free energy, 298 K: -4.84 kcal/mol

## CCCOC(=O)CC
In O
  solvation free energy, 298 K: -2.45 kcal/mol

## CCc1cccnc1
In O
  solvation free energy, 298 K: -4.59 kcal/mol

## O=[N+]([O-])c1cc[n+]([O-])cc1
In CC(C)CC(C)(C)C
  solvation free energy, 298 K: -7.06 kcal/mol
In CCCCCC
  solvation free energy, 298 K: -7.08 kcal/mol
In CCCCCCC
  solvation free energy, 298 K: -7.12 kcal/mol
In CCCCCCCC
  solvation free energy, 298 K: -7.13 kcal/mol
In CCCCCCCCCC
  solvation free energy, 298 K: -7.16 kcal/mol

## COP(=O)(OC)OC
In O
  solvation free energy, 298 K: -8.7 kcal/mol

## Oc1cccc(O)c1
In CCCCCC
  solvation free energy, 298 K: -5.78 kcal/mol
In CCCCCCC
  solvation free energy, 298 K: -5.84 kcal/mol
In CCCCCCCC
  solvation free energy, 298 K: -5.85 kcal/mol
In Cc1ccc(C)cc1
  solvation free energy, 298 K: -8.35 kcal/mol
In Cc1cccc(C)c1
  solvation free energy, 298 K: -8.33 kcal/mol
In Cc1ccccc1C
  solvation free energy, 298 K: -8.33 kcal/mol
In O
  solvation free energy, 298 K: -11.4 kcal/mol

## CC(C)CN(CC(C)C)N=O
In CC(C)CC(C)(C)C
  solvation free energy, 298 K: -7.35 kcal/mol
In O
  solvation free energy, 298 K: -4.84 kcal/mol

## CN(C)CCC(c1ccc(Br)cc1)c1ccccn1 (stereo not drawn)
In O
  solvation free energy, 298 K: -11.6 kcal/mol

## CCCCl
In Brc1cccc2ccccc12
  solvation free energy, 298 K: -3.29 kcal/mol
In C1CCOC1
  solvation free energy, 298 K: -3.88 kcal/mol
In C1CCOCC1
  solvation free energy, 298 K: -3.79 kcal/mol
In C=CCCCCCCCCCCCCCC
  solvation free energy, 298 K: -3.01 kcal/mol
In CC(=O)OCc1ccccc1
  solvation free energy, 298 K: -3.4 kcal/mol
In CC(C)CC(C)(C)C
  solvation free energy, 298 K: -3.2 kcal/mol
In CCC(C)=O
  solvation free energy, 298 K: -3.68 kcal/mol
In CCCCCC
  solvation free energy, 298 K: -3.37 kcal/mol
In CCCCCCC
  solvation free energy, 298 K: -3.27 kcal/mol
In CCCCCCCC
  solvation free energy, 298 K: -3.22 kcal/mol
[1]
  solvation free energy, 298 K: -3.25 kcal/mol
In CCCCCCCCCCCCCCCC
  solvation free energy, 298 K: -3.01 kcal/mol
In CCCCCCCCO
  solvation free energy, 298 K: -3.06 kcal/mol
In CCCCCl
  solvation free energy, 298 K: -3.68 kcal/mol
In CCCCO
  solvation free energy, 298 K: -3.16 kcal/mol
In CCOC(C)=O
  solvation free energy, 298 K: -3.68 kcal/mol
In Cc1ccc(C)cc1
  solvation free energy, 298 K: -3.58 kcal/mol
In ClC(Cl)(Cl)Cl
  solvation free energy, 298 K: -3.7 kcal/mol
In ClC(Cl)Cl
  solvation free energy, 298 K: -3.62 kcal/mol
In ClCCCl
  solvation free energy, 298 K: -3.7 kcal/mol
In O
  solvation free energy, 298 K: -0.37 kcal/mol
In O=C1CCCCC1
  solvation free energy, 298 K: -3.67 kcal/mol
In [2H]O[2H]
  solvation free energy, 298 K: -0.74 kcal/mol
In c1ccc2ncccc2c1
  solvation free energy, 298 K: -3.35 kcal/mol

## CC1=CCC2C(C1)C2(C)C (stereo not drawn)
In O
  solvation free energy, 298 K: 0.79 kcal/mol

## CCCSCCC
In O
  solvation free energy, 298 K: -1.28 kcal/mol

## CC(C)S
In O
  solvation free energy, 298 K: -0.7 kcal/mol

## CCCCCOC(=O)CC
In O
  solvation free energy, 298 K: -2.11 kcal/mol

## ClC1=C(Cl)C2(Cl)C3C(Cl)C=CC3C1(Cl)C2(Cl)Cl (stereo not drawn)
[1]
  solvation free energy, 298 K: -13.5 kcal/mol
In CCCCCCCCO
  solvation free energy, 298 K: -10.6 kcal/mol
In O
  solvation free energy, 298 K: -2.55 kcal/mol

## CCC=CCCC=O
In O
  solvation free energy, 298 K: -3.19 kcal/mol

## Nc1ccc(S(=O)(=O)NC(=O)c2ccccc2)cc1
In O
  solvation free energy, 298 K: -18.1 kcal/mol

## CCC(C)O (stereo not drawn)
In Brc1ccccc1
  solvation free energy, 298 K: -4.15 kcal/mol
In C1COCCO1
  solvation free energy, 298 K: -5.54 kcal/mol
In CC#N
  solvation free energy, 298 K: -4.82 kcal/mol
In CC(=O)N(C)C
  solvation free energy, 298 K: -5.89 kcal/mol
In CC(C)(C)O
  solvation free energy, 298 K: -5.67 kcal/mol
In CC(C)CC(C)(C)C
  solvation free energy, 298 K: -3.42 kcal/mol
In CC(C)O
  solvation free energy, 298 K: -5.61 kcal/mol
In CC(C)OC(C)C
  solvation free energy, 298 K: -4.56 kcal/mol
In CCC(C)=O
  solvation free energy, 298 K: -5.18 kcal/mol
In CCCCCC
  solvation free energy, 298 K: -3.56 kcal/mol
In CCCCCCC
  solvation free energy, 298 K: -3.28 kcal/mol
In CCCCCCCC
  solvation free energy, 298 K: -3.26 kcal/mol
In CCCCCCCCCCCCCCCC
  solvation free energy, 298 K: -3.16 kcal/mol
In CCCCCCCCCCO
  solvation free energy, 298 K: -5.31 kcal/mol
In CCCCCCCCO
  solvation free energy, 298 K: -5.15 kcal/mol
In CCCCCl
  solvation free energy, 298 K: -4.17 kcal/mol
In CCCCO
  solvation free energy, 298 K: -5.5 kcal/mol
In CCCCOC(C)=O
  solvation free energy, 298 K: -4.9 kcal/mol
In CCCOCCC
  solvation free energy, 298 K: -4.4 kcal/mol
In CCOC(=O)c1ccccc1C(=O)OCC
  solvation free energy, 298 K: -4.35 kcal/mol
In CN(C)C=O
  solvation free energy, 298 K: -5.67 kcal/mol
In CO
  solvation free energy, 298 K: -6.02 kcal/mol
In Cc1ccc(C)cc1
  solvation free energy, 298 K: -4.23 kcal/mol
In Cc1cccc(C)c1
  solvation free energy, 298 K: -4.14 kcal/mol
In Cc1ccccc1C
  solvation free energy, 298 K: -4.19 kcal/mol
In Clc1ccccc1
  solvation free energy, 298 K: -4.26 kcal/mol

## CNc1ccccc1
In CCCCCCCCCCCCCCCC
  solvation free energy, 298 K: -6.06 kcal/mol
In O
  solvation free energy, 298 K: -4.69 kcal/mol

## ClC(Cl)=C(Cl)C(Cl)=C(Cl)Cl
In O
  solvation free energy, 298 K: -0.46 kcal/mol

## C#C
In C1COCCO1
  solvation free energy, 298 K: -1.71 kcal/mol
In CC(C)=O
  solvation free energy, 298 K: -1.83 kcal/mol
In CC(C)CC(C)(C)C
  solvation free energy, 298 K: -0.37 kcal/mol
In CCCCCC
  solvation free energy, 298 K: -0.52 kcal/mol
In CCCCO
  solvation free energy, 298 K: -0.82 kcal/mol
In CN(C)C=O
  solvation free energy, 298 K: -1.75 kcal/mol
In CO
  solvation free energy, 298 K: -1.42 kcal/mol
In COC(C)=O
  solvation free energy, 298 K: -1.76 kcal/mol
In Cc1ccc(C)cc1
  solvation free energy, 298 K: -0.8 kcal/mol
In ClC(Cl)(Cl)Cl
  solvation free energy, 298 K: -0.65 kcal/mol
In O
  solvation free energy, 298 K: 0 kcal/mol

## CN(C)CCC=C1c2ccccc2CCc2ccccc21
In O
  solvation free energy, 298 K: -7.43 kcal/mol

## Oc1c(I)cc(I)cc1I
In CC(C)CC(C)(C)C
  solvation free energy, 298 K: -12.4 kcal/mol
In CCCCOCCCC
  solvation free energy, 298 K: -14.2 kcal/mol
In O
  solvation free energy, 298 K: -7.16 kcal/mol

## COS(=O)(=O)OC
In O
  solvation free energy, 298 K: -5.1 kcal/mol

## CC(C)OC(=O)c1ccccc1C(=O)OC(C)C
In O
  solvation free energy, 298 K: -7.42 kcal/mol

## C=CC(C)C
In CC(=O)N(C)C
  solvation free energy, 298 K: -2.13 kcal/mol
In CC(C)CC(C)(C)C
  solvation free energy, 298 K: -2.87 kcal/mol
In CCC(C)=O
  solvation free energy, 298 K: -2.71 kcal/mol
In CCCCCCC
  solvation free energy, 298 K: -2.96 kcal/mol
In CCCCCCCC
  solvation free energy, 298 K: -2.92 kcal/mol
In CCCCO
  solvation free energy, 298 K: -2.5 kcal/mol
In CCNC(C)=O
  solvation free energy, 298 K: -2.26 kcal/mol
In CCOC(C)=O
  solvation free energy, 298 K: -2.74 kcal/mol
In CN1CCCC1=O
  solvation free energy, 298 K: -2.03 kcal/mol
In CN(C)C=O
  solvation free energy, 298 K: -2.09 kcal/mol
In CNC(C)=O
  solvation free energy, 298 K: -2.14 kcal/mol
In CNC=O
  solvation free energy, 298 K: -1.75 kcal/mol
In Cc1ccc(C)cc1
  solvation free energy, 298 K: -3.31 kcal/mol
In ClCCCl
  solvation free energy, 298 K: -2.71 kcal/mol
In O
  solvation free energy, 298 K: 1.84 kcal/mol
In O=C1CCCCC1
  solvation free energy, 298 K: -2.61 kcal/mol

## Clc1cc(-c2cc(Cl)c(Cl)c(Cl)c2)cc(Cl)c1Cl
In O
  solvation free energy, 298 K: -4.11 kcal/mol

## Cc1cc(Cl)c(Cl)cc1Cl
[1]
  solvation free energy, 298 K: -7.99 kcal/mol
In O
  solvation free energy, 298 K: -1.05 kcal/mol

## COc1cccc(N)c1
In O
  solvation free energy, 298 K: -7.29 kcal/mol

## Cc1c[nH]cn1
In O
  solvation free energy, 298 K: -10.3 kcal/mol

## ClCCCCl
In CC(C)=O
  solvation free energy, 298 K: -5.63 kcal/mol
In CCCCCC
  solvation free energy, 298 K: -4.43 kcal/mol
In ClC(Cl)(Cl)Cl
  solvation free energy, 298 K: -5.2 kcal/mol
In O
  solvation free energy, 298 K: -1.89 kcal/mol

## NC1CCCCC1
In C1CCCCC1
  solvation free energy, 298 K: -5.47 kcal/mol
